# Patent US9458113B2 (Boehringer Ingelheim International GmbH, priority 2014, dated 2016)
# Assays:
# human hepatocytes = assay: Metabolic stability with human hepatocytes; assay type: in vitro ADME; conditions: 1 μM test compound, well stirred model
# Protocol: Assay for the Determination of Metabolic Stability with Human Hepatocytes
# The metabolic degradation of the test compound is assayed in a human hepatocyte suspension. Human hepatocytes (typically cryopreserved) are incubated in an appropriate buffer system (e.g. Dulbecco's modified eagle medium plus 3.5 μg glucagon/500 mL, 2.5 mg insulin/500 mL and 3.75 mg/500 mL hydrocortison) containing 5% species serum. Following a (typically) […] preincubation in an incubator (37° C., 10% CO2), 5 μl of test compound solution (80 μM; from […] stock solution in DMSO diluted 1:25 with medium) are added into 395 μl hepatocyte suspension (cell density in the range 0.25-5*10^6 cells/mL, typically 1*10^6 cells/mL; final concentration of test compound 1 μM, final DMSO concentration 0.05%). The cells are incubated for six hours (incubator, orbital shaker) and samples (25 μl) are taken at 0, 0.5, 1, 2, 4 and 6 hours. Samples are transferred into acetonitrile and pelleted by centrifugation (5 min) The supernatant is transferred to a new 96-deepwell plate, evaporated under nitrogen and resuspended. The decline of parent compound is analyzed by LC-MS/MS.
# The intrinsic clearance CL_[…] is calculated as follows: CL_[…]=Dose/AUC=(C0/CD)/(AUD+clast/k)*1,000/60
# (C0: initial concentration in the incubation [μM], CD: cell density of vital cells [10^6 cells/mL], AUD: area under the data [μM*h], clast: concentration of last data point [μM], k: slope of the regression line for parent decline [h^−1])
# The calculated in vitro hepatic intrinsic clearance Qh can be scaled up to the intrinsic in vivo hepatic clearance and used to predict hepatic in vivo blood clearance (CL) by the use of a liver model (well stirred model): CL_[…]_INVIVO [ml/min/kg]=(CL_[…] [μL/min/10^6 cells]*hepatocellularity [10^6 cells/g liver]*liver factor [g/kg bodyweight])/1,000 CL [ml/min/kg]=CL_[…]_INVIVO [ml/min/kg]*hepatic blood flow [ml/min/kg]/(CL_[…]_INVIVO [ml/min/kg]+hepatic blood flow [ml/min/kg]) Qh [%]=CL [ml/min/kg]/hepatic blood flow [ml/min/kg])
# (Hepatocellularity, human: 120*10^6 cells/g liver; liver factor, human: 25.7 g/kg bodyweight; blood flow, human: 21 ml/(min*kg))
# The calculated in-vitro hepatic intrinsic clearance values of selected compounds in the metabolic stability assay with human hepatocytes described above are listed in Table 15.
# [1] = Drug transport across human Caco-2 cells; assay type: in vitro ADME; conditions: apparent permeability coefficient, Caco-2 monolayers, pH 7.2, 37° C.; for Papp A→B at 10 µM: apical-to-basal (absorptive), read-out: PEAB; for Papp B→A at 10 µM: basal-to-apical (secretory), read-out: PEBA
# Description: Assay for Determination of Drug Transport Across Human Caco-2 Cells
# The assay provides information on the potential of a compound to pass the cell membrane, on the extent of oral absorption as well as on whether the compound is actively transported by uptake and/or efflux transporters. For the measurement of permeability across polarized, confluent human cancer colon carcinoma cells 2 (Caco-2) cell monolayers grown on permeable filter supports are used as the in vitro absorption model.
# Apparent permeability coefficients (PE) of the compounds across the Caco-2 monolayers are measured (pH 7.2, 37° C.) in apical-to-basal (AB) (absorptive) and basal-to-apical (BA) (secretory) transport direction. AB permeability (PEAB) represents drug absorption from the intestine into the blood and BA permeability (PEBA) drug secretion from the blood back into the intestine via both passive permeability as well as active transport mechanisms mediated by efflux and uptake transporters that are expressed on the Caco-2 cells. The compounds are assigned to permeability/absorption classes by comparison of the AB permeabilities with the AB permeabilities of reference compounds with known in vitro permeability and oral absorption in the human. Identical or similar permeabilities in both transport directions indicate passive permeation, vectorial permeability points to additional active transport mechanisms. […] Active transport is concentration-dependently saturable.
# Caco-2 cells (1-2*10^5 cells/cm^2 area) are seeded on filter inserts (Costar transwell polycarbonate or PET filters, 0.4 μm pore size) and cultured (DMEM) for 10 to 25 days. Compounds are dissolved in appropriate solvent (like DMSO, […] stock solutions). Stock solutions are diluted with HTP-4 buffer (128.13 mM NaCl, 5.36 mM KCl, 1 mM MgSO4, 1.8 mM CaCl2, 4.17 mM NaHCO3, 1.19 mM Na2HPO4x7H2O, 0.41 mM NaH2PO4xH2O, 15 mM HEPES, 20 mM glucose, pH 7.2) to prepare the transport solutions (typically 10 μM compound, final DMSO<=0.5%). The transport solution (TL) is applied to the apical or basolateral donor side for measuring A-B or B-A permeability (3 filter replicates), respectively. The receiver side contains HTP-4 buffer supplemented with 2% BSA. Samples are collected at the start and end of experiment from the donor and at various time intervals for up to 2 hours also from the receiver side for concentration measurement by LC-MS/MS or scintillation counting. Sampled receiver volumes are replaced with fresh receiver solution.
# The apparent permeability coefficients (PEAB and PEBA) of selected compounds in the Caco-2 drug transport assay described above are listed in Table 16.
# [2] = biological target: Human neutrophil elastase (Homo sapiens (Human), UniProt P08246); assay: Human Neutrophil Elastase Assay; assay type: biochemical; conditions: substrate MeOSuc-Ala-Ala-Pro-Val-AMC 250 μM, pH 7.5
# Human neutrophil elastase, sequence (P08246 30-247): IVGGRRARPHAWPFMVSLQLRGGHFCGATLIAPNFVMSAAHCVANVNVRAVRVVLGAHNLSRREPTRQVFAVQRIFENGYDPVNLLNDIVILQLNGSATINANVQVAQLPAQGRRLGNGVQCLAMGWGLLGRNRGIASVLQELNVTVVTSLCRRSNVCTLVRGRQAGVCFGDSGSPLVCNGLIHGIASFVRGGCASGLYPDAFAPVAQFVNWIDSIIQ
# Protocol: The following buffers were used: Compound buffer: 100 mM Tris, 500 mM NaCl, adjusted to pH 7.5; Assay buffer: 100 mM Tris, 500 mM NaCl, adjusted to pH 7.5, containing 0.01% BSA.
# Assay conditions: Test compounds were prediluted in DMSO and subsequently in compound buffer (5% DMSO final). […] After inactivation of the enzyme, fluorescence intensities were measured at 380 nm excitation and 460 nm emission wavelengths.
# Each plate contains wells with a high value control (DMSO+enzyme+substrate) and wells with a low value control (DMSO+inactivated enzyme+substrate). IC50 values were estimated using a sigmoidal concentration response curve with variable slope. Means of low values were taken as 0%, means of high values as 100%.
# [3] = biological target: neutrophil elastase in zymosan-stimulated human plasma (Homo sapiens (Human), UniProt P08246); assay: Neutrophil elastase inhibitory activity in human plasma; assay type: biochemical; conditions: human plasma from zymosan-stimulated blood
# neutrophil elastase in zymosan-stimulated human plasma, sequence (P08246 30-247): as above
# Protocol: Assay for the Determination of Neutrophil Elastase Inhibitory Activity in Human Plasma
# Citrated blood from human healthy donors is mixed with zymosan suspension and incubated at room temperature. This leads to the stimulation of neutrophils and the release of neutrophil elastase into the plasma. The stimulated blood is centrifuged to generate the neutrophil elastase enriched plasma.
# Various concentrations of the neutrophil elastase inhibitor are incubated with plasma. […] A dose response curve is generated to calculate the EC50 of the inhibitor.
# [4] = Metabolic stability with human liver microsomes; assay type: in vitro ADME; conditions: pH 7.6; pooled human liver microsomes, 1 μM test compound, 37° C.; read-out: t1/2 INVITRO
# [5] = Aqueous solubility (High Throughput Method); assay type: physicochemical; conditions: McIlvaine buffer pH 6.8 with 2.5% DMSO, kinetic from dmso stock, McIlvaine buffer pH 6.8, 2.5% DMSO, 24 h shaking
# Protocol: Assay for Determination of Aqueous Solubility (“High Throughput Method”)
# Starting from a […] DMSO stock solution, aliquots are diluted with acetonitrile/water (1/1) and McIlvaine buffer pH 6.8, respectively. After 24 h of shaking, the solutions or suspensions are filtered and analyzed by LC-UV. The amount dissolved in buffer is compared to the amount dissolved in the acetonitrile/water (1/1) solution. Solubility is measured from 0.001 to 0.125 mg/ml at a DMSO concentration of 2.5%. If more than 90% of the compound is dissolved in buffer, the value is marked with “>”.
# [6] = Aqueous solubility (Shaked Flask Method); assay type: physicochemical; conditions: aqueous buffer, thermodynamic from solid, pH 6.8
# Protocol: Assay for Determination of Aqueous Solubility (“Shaked Flask Method”)
# Saturated solutions are prepared in well plates by adding an appropriate volume of selected aqueous media (typically in the range of 0.25-1.5 ml) into each well which contains a known quantity of solid drug substance (typically in the range 0.5-5.0 mg). The wells are shaken or stirred for a predefined time period (typically in a range of 2-24 h) and then filtered using appropriate filter membranes (typically PTFE-filters with 0.45 μm pore size). Filter absorption is avoided by discarding the first few drops of filtrate. The amount of dissolved drug substance is determined by UV spectroscopy or by HPLC with UV-detection. In addition, the pH of the aqueous saturated solution is measured using a glass-electrode pH meter.
SMILES,Qh (human hepatocytes) [%],Papp A→B at 10 µM [1] [×10⁻⁶ cm/s],Papp B→A at 10 µM [1] [×10⁻⁶ cm/s],IC50 [2] [nM],EC50 [3] [nM],half-life at 1 μM [4] [h],solubility at 24 h [5] [µg/mL],solubility [6] [µg/mL]
"CN1C(=O)N(c2cccc(C(F)(F)F)c2)C2=C(C(=O)CCC2)C1c1ccc(C#N)cc1-c1ccn(C)c(=O)c1 (single isomer, unassigned) [Example 20.b, 4-[3-Methyl-2,5-dioxo-1-(3-trifluoromethyl-phenyl)-1,2,3,4,5,6,7,8-octahydro-quinazolin-4-yl]-3-(1-methyl-2-oxo-1,2-dihydro-pyridin-4-yl)-benzonitrile]",5,6.2,95,–,–,–,–,–
CNC(=O)c1cc(C#N)ccc1[C@@H]1C2=C(CCC2=O)N(c2cccc(C(F)(F)F)c2)C(=O)N1C [Example 2.1],9,14,78,1.8,2,> 2.17,–,–
CN1C(=O)N(c2cccc(C(F)(F)F)c2)C2=C(C(=O)CC2)C1c1ccc(C#N)cc1-c1cnn(C)c1 (stereo not drawn) [Example 11.2],24,61,76,< 1,2,2,–,–
"Cc1nnc(-c2cc(C#N)ccc2C2C3=C(CCC3=O)N(c3cccc(C(F)(F)F)c3)C(=O)N2C)o1 (stereo not drawn) [Example 13.1, 4-[3-Methyl-2,5-dioxo-1-(3-trifluoromethyl-phenyl)-2,3,4,5,6,7-hexahydro-1H-cyclopentapyrimidin-4-yl]-3-(5-methyl-[1,3,4]oxadiazol-2-yl)-benzonitrile]",16,49,72,2.2,2,> 2.17,–,–
"CN1C(=O)N(c2cccc(C(F)(F)F)c2)C2=C(C(=O)CCC2)C1c1ccc(C#N)cc1-c1ccn(C)c(=O)c1 (stereo not drawn) [Example 15.8, 4-[3-Methyl-2,5-dioxo-1-(3-trifluoromethyl-phenyl)-1,2,3,4,5,6,7,8-octahydro-quinazolin-4-yl]-3-(1-methyl-2-oxo-1,2-dihydro-pyridin-4-yl)-benzonitrile]",–,3.5,57,1.2,4,> 2.17,–,–
"CN1C(=O)N(c2cccc(C(F)(F)F)c2)C2=C(C(=O)CCC2)[C@H]1c1ccc(C#N)cc1-c1ccn(C)c(=O)c1 [Example 20.b, 4-[3-Methyl-2,5-dioxo-1-(3-trifluoromethyl-phenyl)-1,2,3,4,5,6,7,8-octahydro-quinazolin-4-yl]-3-(1-methyl-2-oxo-1,2-dihydro-pyridin-4-yl)-benzonitrile]",–,–,–,< 1,1,> 2.17,72,> 10
CN1C(=O)N(c2cccc(C(F)(F)F)c2)C2=C(C(=O)CC2)C1c1ccc(C#N)cc1-c1cncnc1 (stereo not drawn) [Example 21],23,52,67,1.3,2,> 2.17,50,> 10
"CN1C(=O)N(c2cccc(C(F)(F)F)c2)C2=C(C(=O)CC2)C1c1ccc(C#N)cc1-c1ccncn1 (stereo not drawn) [Example 22, 4-[3-Methyl-2,5-dioxo-1-(3-trifluoromethyl-phenyl)-2,3,4,5,6,7-hexahydro-1H-cyclopentapyrimidin-4-yl]-3-pyrimidin-4-yl-benzonitrile]",12,52,77,3.8,6,> 2.17,83,> 10
"CN1C(=O)N(c2cccc(C(F)(F)F)c2)C2=C(C(=O)CC2)[C@H]1c1ccc(C#N)cc1CNC1CCOCC1 [Example 25, 4-[(R)-3-Methyl-2,5-dioxo-1-(3-trifluoromethyl-phenyl)-2,3,4,5,6,7-hexahydro-1H-cyclopentapyrimidin-4-yl]-3-[(tetrahydro-pyran-4-ylamino)-methyl]-benzonitrile]",20,16,96,1.9,7,> 2.17,–,> 10
